Results: patent publication US20130324412A1, “N-ALKOXYAMIDES OF 6-(SUBSTITUTED PHENYL)-4-AMINOPICOLINATES AND 2-(SUBSTITUTED PHENYL)-6-AMINO-4-PYRIMIDINECARBOXYLATES AND THEIR USE AS SELECTIVE HERBICIDES FOR CROPS” (DOW AGROSCIENCES LLC, priority 2009, published 2013)

What was measured:
Type in all cases: in vivo
[1] = system: lambsquarters (Chenopodium album); assay: Postemergence herbicidal activity in corn, lambsquarters; conditions: corn test, visual rating after 21 d, probit analysis, dose to kill or control 80 percent
Experimental: (§1) Seeds of corn and the desired weed species were planted in Sun Gro MetroMix 360 planting mixture, which typically has a pH of 6.0 to 6.8 and an organic matter content of about 30 percent, in plastic pots with a surface area of 95 cm^2. When required to ensure good germination and healthy plants, a fungicide treatment and/or other chemical or physical treatment was applied. The plants were grown for 7-21 d in a greenhouse with an approximate 15-h photoperiod which was maintained at about 23-29° C. during the day and 22-28° C. during the night. Nutrients and water were added on a regular basis and supplemental lighting was provided with overhead metal halide 1000-Watt lamps as necessary. The corn plants were utilized for testing when they reached the second true leaf stage. The weed species were utilized at the first or second true leaf stage.
(§2) A weighed amount, determined by the highest rate to be tested, of each test compound was dissolved in 4 mL of a 97:3 v/v mixture of acetone and DMSO to obtain concentrated stock solutions. […] The concentrated stock solutions obtained were diluted with 20 mL of an aqueous mixture containing acetone, water, isopropyl alcohol, DMSO, Atplus 411F crop oil concentrate, and Triton X-155 surfactant in a 48.5:39:10:1.5:1.0:0.02 v/v ratio to obtain spray solutions containing the highest application rates. […]
(§3) The treated plants and control plants were placed in a greenhouse as described above and watered by sub-irrigation to prevent wash-off of the test compounds. After 21 d, the condition of the test plants as compared with that of the untreated plants was determined visually and scored on a scale of 0 to 100 percent where 0 corresponds to no injury and 100 corresponds to complete kill. […]

[2] = system: lambsquarters (Chenopodium album); assay: Postemergence herbicidal activity in oilseed rape (canola), lambsquarters; design: unit: g ai/ha; conditions: oilseed rape (canola) test, visual rating after 21 d, probit analysis, dose to kill or control 80 percent
Experimental: as §1, with “oilseed rape (canola)” for “corn”, “MetroMix®” for “MetroMix”, “15-28” for “7-21”, “third or fourth” for “second”, “fourth” for “first or second”
A weighed amount, determined by the highest rate to be tested, of each test compound was dissolved in 4 mL of a 97:3 v/v mixture of acetone and DMSO to obtain concentrated stock solutions. […] The concentrated stock solutions obtained were diluted with 20 mL of an aqueous mixture containing acetone, water and Agri-Dex crop oil concentrate, in a 16.7:82.1:1.25 v/v ratio to obtain spray solutions containing the highest application rates. Additional application rates were obtained by serial dilution of 12 mL of the high rate solution into a solution containing 2 mL of 97:3 v/v mixture of acetone and DMSO and 10 mL of an aqueous mixture containing acetone, water and Agri-Dex crop oil concentrate, in a 16.7:82.1:1.25 v/v ratio to obtain ½×, ¼×, ⅛× and 1/16× rates of the high rate. Compound requirements are based upon a 12 mL application volume at a rate of 187 L/ha. Formulated compounds were applied to the plant material with an overhead Mandel track sprayer equipped with 8002E nozzles calibrated to deliver 187 L/ha over an application area of 0.503 m^2 at a spray height of 18 inches (43 cm) above the average plant canopy height. Control plants were sprayed in the same manner with the solvent blank.
The treated plants and control plants were placed in a greenhouse as described above and watered by sub-irrigation to prevent wash-off of the test compounds. After 21 d, the condition of the test plants as compared with that of the untreated plants was determined visually and scored on a scale of 0 to 100 percent where 0 corresponds to no injury and 100 corresponds to complete kill.
By applying the well-accepted probit analysis as described by J. Berkson in Journal of the American Statistical Society 1953, 48, 565, and by D. Finney in “Probit Analysis” Cambridge University Press (1952), the above data can be used to calculate GR20 and GR80 values, which are defined as growth reduction factors that correspond to the effective dose of herbicide required to kill or control 20 percent or 80 percent, respectively, of a target plant.

[3] = system: sicklepod (Casia obtusifolia); assay: Postemergence herbicidal activity in corn, sicklepod; conditions: corn test, visual rating after 21 d, probit analysis, dose to kill or control 80 percent
Experimental: as §1, §2, §3

[4] = system: wild buckwheat (Polygonum convululus); assay: Postemergence herbicidal activity in corn, wild buckwheat; conditions: corn test, visual rating after 21 d, probit analysis, dose to kill or control 80 percent
Experimental: as §1, §2, §3

Compound | CHEAL GR80 [1] | CHEAL GR80 [2] | CASOB GR80 [3] | POLCO GR80 [4]
COc1c(Cl)ccc(-c2cc(N)c(Cl)c(C(=O)NOCC(C)C)n2)c1F [Compound 1, 4-amino-3-chloro-6-(4-chloro-2-fluoro-3-methoxyphenyl)-N-(2-methylpropoxy)picolinamide] | <4 g ai/ha | <8.75 | 8.75 g ai/ha | <4 g ai/ha
CONC(=O)c1nc(-c2ccc(Cl)c(OC)c2F)cc(N)c1Cl [Compound 2, 4-Amino-3-chloro-6-(4-chloro-2-fluoro-3-methoxyphenyl)-N-methoxypicolinamide] | <4 g ai/ha | 22 | 17 g ai/ha | 6 g ai/ha
